Results from patent US11814352B2, “Salts formed by 2-(1-acyloxy-n-pentyl) benzoic acid and basic amino acid or aminoguanidine, and preparation method and application thereof” (JIANGSU KANION PHARMACEUTICAL CO., LTD., priority 2018, dated 2023).
Values after ≈ are worked out from the molar mass of the structure shown. Values joined by “and” are separate entries in the source; they are usually repeats but may differ in a detail not shown here. Equal values may be shown once. Read-outs that look alike come from different tables or passages of the source.

Assays:
[1] = Solubility test (saturated solubility in water); type: physicochemical; conditions: 25±2° C.; for solubility at 30 min: 25 °C, thermodynamic from solid
Description: Test method: 10 mg of a test sample (solid was ground into fine powder) was weighed and added to a certain amount of solvent at 25±2° C. (the temperature of a water bath is controlled at 25° C.), and the solution was shaken vigorously for 30 s every 5 min. The dissolution was observed within 30 min. When there were no visible solute particles or droplets, the test sample was regarded as completely dissolved.

[2] = system: bleeding time in mice after tail cutting; assay: Effect on bleeding time in mice after tail cutting; type: in vivo, Kunming mice; conditions: 5 mg/kg orally once a day for 14 days, 1 h after last dose
Description: SPF Kunming mice, weighing 18-22 g, purchased from Beijing Vital River Laboratory Animal Technology Co., Ltd., having a certificate number of SCXK (Beijing) 2010-0002, raised in an SPF animal room with indoor temperature controlled at 23±2° C., and allowed to freely eat and drink. The day and night time was 12 h/12 h.
The administration dose level of the positive drug groups and the test drug groups was 5 mg/kg, and the same amount of normal saline was given to the negative control group. All mice were administered for 14 consecutive days orally once a day. One hour after the last dose, the mice were anesthetized with 1-2% isoflurane, and the tails were cut for 5 mm. The tips of the tails were absorbed dry with filter paper every 30 seconds until the bleeding stopped naturally. Bleeding time is defined as the interval between the start and stop of bleeding.

ICR mice = assay: Acute toxicity test, tail vein injection in mice; conditions: for Number of deaths (quantity): 10 animals, 14 days
[3] = Acute toxicity test, tail vein injection in mice; conditions: female, ICR, mouse, in vivo, iv, LD50 value, Bliss method
[4] = system: AA induced platelet aggregation; assay: In vitro anti-platelet aggregation, AA induced (turbidimetry, PRP); type: cell-based, rabbits; conditions: read-out: IC50 AA (1 mM); rabbit PRP, inducer AA 1 mM, 37° C.

CCCC[C@H](OC(C)=O)c1ccccc1C(=O)O [I1s, L-Arginine (S)-2-(1-Acetoxy-n-Pentyl) Benzoate]
solubility at 30 min ([1]; read-out: Saturated solubility in H2O, Mean): 136 mg/mL (≈ 544 mM) | solubility at 30 min ([1]; read-out: Saturated solubility in H2O, dissolved sample amount (single determinations)): 134 mg/mL (≈ 535 mM) | Saturated solubility in H2O, dissolved sample amount (single determinations) [1]: 134.24 mg/mL and 138.23 mg/mL and 138.40 mg/mL | Bleeding time [2]: 25.31 ± 1.01 min | Symptoms of poisoning (ICR mice; higher dose in the tail vein): convulsions and decreased activity | Body weight D 1 (ICR mice; i.v. 700 mg/kg): 19.4 ± 0.6 g | Body weight D 7 (ICR mice; i.v. 700 mg/kg): 21.0 ± 0.6 g | Body weight D 14 (ICR mice; i.v. 700 mg/kg): 22.3 ± 0.7 g | Number of deaths (quantity) (ICR mice; i.v. 700 mg/kg): 1 | Body weight D 1 (ICR mice; i.v. 900 mg/kg): 19.8 ± 0.5 g | Body weight D 7 (ICR mice; i.v. 900 mg/kg): 20.9 ± 0.6 g | Body weight D 14 (ICR mice; i.v. 900 mg/kg): 22.2 ± 0.6 g | Number of deaths (quantity) (ICR mice; i.v. 900 mg/kg): 2 | Body weight D 1 (ICR mice; i.v. 1100 mg/kg): 19.4 ± 0.6 g | Body weight D 7 (ICR mice; i.v. 1100 mg/kg): 21.0 ± 0.5 g | Body weight D 14 (ICR mice; i.v. 1100 mg/kg): 22.0 ± 0.5 g | Number of deaths (quantity) (ICR mice; i.v. 1100 mg/kg): 4 | Body weight D 1 (ICR mice; i.v. 1300 mg/kg): 19.5 ± 0.4 g | Body weight D 7 (ICR mice; i.v. 1300 mg/kg): 20.8 ± 0.6 g | Body weight D 14 (ICR mice; i.v. 1300 mg/kg): 22.1 ± 0.6 g | Number of deaths (quantity) (ICR mice; i.v. 1300 mg/kg): 6 | Body weight D 1 (ICR mice; i.v. 1500 mg/kg): 19.9 ± 0.2 g | Body weight D 7 (ICR mice; i.v. 1500 mg/kg): 21.0 g | Body weight D 14 (ICR mice; i.v. 1500 mg/kg): 23.6 g | Number of deaths (quantity) (ICR mice; i.v. 1500 mg/kg): 9 | LD50 at 14 days [3]: 1120 mg/kg | LD50 at 14 days ([3]; interval in parentheses): 975 to 1290 mg/kg | IC50 [4]: 160 ± 20 µM
